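In this assay, cells in 96-well plates receive the compound at five concentrations for 48 hours. Endpoints are linearly interpolated between the surrounding concentrations. GI50: concentration for 50% inhibition of growth.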 Activity calls are given as the source filed them. Rule as the data show it: active = GI50 up to about 1.1 µM and inactive = higher.
Assays:
Test in all cases: growth of human tumour cells (NCI), 48 h
RPMI-8226 = system: RPMI-8226
SK-MEL-2 = system: SK-MEL-2
MCF7 = system: MCF7
SF-268 = system: SF-268
OVCAR-4 = system: OVCAR-4
SF-539 = system: SF-539
SK-OV-3 = system: SK-OV-3
HT-29 = system: HT-29
A498 = system: A498
NCI-H23 = system: NCI-H23
SW-620 = system: SW-620
M14 = system: M14
K562 = system: K562
U-251 = system: U-251
SN12C = system: SN12C
HCT-116 = system: HCT-116
PC-3 = system: PC-3
UO-31 = system: UO-31
SK-MEL-28 = system: SK-MEL-28

Measured: GI50

Cc1ccc(C(CC(=O)C(C)(C)CN2CCCCC2)SCCS(=O)(=O)O)cc1 (stereo not given)
inactive: RPMI-8226 22.1 µM | SK-MEL-2 12.5 µM | MCF7 21.6 µM | SF-268 37.8 µM | OVCAR-4 31.6 µM | SF-539 23.2 µM | SK-OV-3 49.3 µM | HT-29 24 µM | A498 19.7 µM | NCI-H23 27.9 µM | SW-620 25.8 µM | M14 23.8 µM | K562 11.6 µM | U-251 29.4 µM | SN12C 25.3 µM | HCT-116 22.3 µM | PC-3 34.4 µM | UO-31 25.2 µM

N#Cc1nc(COCc2ccccc2)oc1N
inactive: RPMI-8226 74.8 µM | SK-MEL-2 > 100 µM | MCF7 > 100 µM | SK-MEL-28 > 100 µM | SF-268 > 100 µM | OVCAR-4 > 100 µM | SF-539 > 100 µM | SK-OV-3 > 100 µM | HT-29 > 100 µM | NCI-H23 > 100 µM | SW-620 > 100 µM | M14 > 100 µM | K562 49.7 µM | U-251 > 100 µM | SN12C > 100 µM | HCT-116 > 100 µM | PC-3 > 100 µM | UO-31 > 100 µM

CC(=O)SSC1(Cl)C(C)(C)C(Cl)(SSC(C)=O)C1(C)C (stereo not given)
inactive: SK-MEL-2 > 100 µM | MCF7 33.6 µM | SK-MEL-28 > 100 µM | SF-268 43.6 µM | OVCAR-4 48.1 µM | SF-539 24.5 µM | SK-OV-3 > 100 µM | HT-29 49.4 µM | A498 67.5 µM | NCI-H23 57.1 µM | SW-620 40.1 µM | M14 84.1 µM | U-251 33.3 µM | SN12C 77.8 µM | HCT-116 44 µM | PC-3 41.3 µM | UO-31 94.8 µM

COc1ccc(C2c3c[nH]nc3CC3CCCCC32)cc1 (stereo not given)
inactive: RPMI-8226 19.8 µM | SK-MEL-2 17.9 µM | MCF7 15.2 µM | SK-MEL-28 18.3 µM | SF-268 18.2 µM | OVCAR-4 16.7 µM | HT-29 23.4 µM | A498 11 µM | NCI-H23 17.4 µM | SW-620 18.3 µM | M14 17.6 µM | K562 22.2 µM | U-251 15.5 µM | SN12C 16.9 µM | HCT-116 17.8 µM | PC-3 14.8 µM | UO-31 14 µM

COCN1C(=O)[C@@H]2CCCN2C(=O)c2cc(Cl)ccc21
inactive: RPMI-8226 > 100 µM | SK-MEL-2 > 100 µM | MCF7 > 100 µM | SK-MEL-28 > 100 µM | SF-268 > 100 µM | OVCAR-4 > 100 µM | SK-OV-3 > 100 µM | HT-29 > 100 µM | A498 > 100 µM | NCI-H23 > 100 µM | SW-620 > 100 µM | M14 > 100 µM | K562 > 100 µM | U-251 > 100 µM | SN12C > 100 µM | HCT-116 > 100 µM | PC-3 > 100 µM | UO-31 > 100 µM

CCOC(=O)/C=C/[C@H](O[Si](CC)(CC)CC)C(C)(C)C
inactive: RPMI-8226 20.6 µM | SK-MEL-2 23.2 µM | MCF7 25.8 µM | SF-268 > 100 µM | OVCAR-4 48.1 µM | SF-539 > 100 µM | SK-OV-3 > 100 µM | HT-29 34.1 µM | A498 > 100 µM | NCI-H23 > 100 µM | SW-620 40.7 µM | K562 65.8 µM | U-251 27.4 µM | SN12C 39 µM | HCT-116 51.2 µM | PC-3 78.3 µM | UO-31 > 100 µM

CN(C)C(=O)C(F)(F)C(c1ccc(C(F)(F)F)cc1)C1C(=O)N(C)C(=O)N(C)C1=O (stereo not given)
inactive: RPMI-8226 > 100 µM | SK-MEL-2 > 100 µM | MCF7 > 100 µM | SK-MEL-28 > 100 µM | SF-268 > 100 µM | OVCAR-4 > 100 µM | SK-OV-3 > 100 µM | A498 > 100 µM | NCI-H23 > 100 µM | SW-620 > 100 µM | M14 > 100 µM | U-251 > 100 µM | HCT-116 > 100 µM | PC-3 > 100 µM | UO-31 > 100 µM

Cc1cc(C)c(S(=O)(=O)N2CCN(S(=O)(=O)c3c(C)cc(C)cc3C)OCCCCCO2)c(C)c1
inactive: SK-MEL-2 > 100 µM | MCF7 > 100 µM | SK-MEL-28 > 100 µM | SF-268 > 100 µM | OVCAR-4 > 100 µM | SK-OV-3 > 100 µM | HT-29 > 100 µM | A498 > 100 µM | NCI-H23 > 100 µM | SW-620 > 100 µM | M14 > 100 µM | K562 > 100 µM | U-251 > 100 µM | SN12C > 100 µM | HCT-116 > 100 µM | PC-3 6.22 µM | UO-31 > 100 µM

C[C@]12CCC3c4ccc(O)cc4CC[C@H]3C1CC(=O)N(N)C2=O (stereo not given in full)
inactive: MCF7 > 100 µM | SK-MEL-28 > 100 µM | SF-268 > 100 µM | OVCAR-4 > 100 µM | SF-539 > 100 µM | SK-OV-3 > 100 µM | HT-29 > 100 µM | A498 > 100 µM | NCI-H23 > 100 µM | SW-620 > 100 µM | M14 > 100 µM | K562 > 100 µM | U-251 > 100 µM | SN12C > 100 µM | HCT-116 > 100 µM | PC-3 > 100 µM | UO-31 > 100 µM

CCNc1nc2c(ncn2C2CC(O)C(COP(=O)(O)O)O2)c(=O)[nH]1 (stereo not given)
inactive: RPMI-8226 > 100 µM | SK-MEL-2 > 100 µM | MCF7 > 100 µM | SK-MEL-28 > 100 µM | SF-268 > 100 µM | OVCAR-4 > 100 µM | SF-539 > 100 µM | SK-OV-3 > 100 µM | HT-29 > 100 µM | A498 > 100 µM | NCI-H23 > 100 µM | SW-620 > 100 µM | M14 > 100 µM | U-251 > 100 µM | SN12C > 100 µM | HCT-116 > 100 µM | PC-3 > 100 µM

CCCCCCCC(CC(=O)O)OC(=O)CC(CCCCCCC)OC1OC(C)C(O)C(O)C1OC1OC(C)C(O)C(O)C1O (stereo not given)
inactive: RPMI-8226 > 100 µM | SK-MEL-2 > 100 µM | MCF7 > 100 µM | SK-MEL-28 44.6 µM | SF-268 > 100 µM | SF-539 39 µM | SK-OV-3 > 100 µM | HT-29 > 100 µM | A498 > 100 µM | NCI-H23 > 100 µM | SW-620 > 100 µM | M14 > 100 µM | K562 72.1 µM | U-251 > 100 µM | SN12C > 100 µM | HCT-116 > 100 µM | PC-3 > 100 µM | UO-31 > 100 µM

Clc1nc(Cl)c(Cl)c(Cl)n1
inactive: RPMI-8226 43.3 µM | MCF7 15.8 µM | SK-MEL-28 19.6 µM | SF-268 17.2 µM | OVCAR-4 23 µM | SF-539 23 µM | SK-OV-3 16.6 µM | HT-29 20.7 µM | A498 19.4 µM | NCI-H23 18.5 µM | SW-620 6.85 µM | M14 17 µM | K562 8.99 µM | U-251 16.7 µM | SN12C 20.6 µM | HCT-116 18.9 µM | PC-3 16.6 µM | UO-31 24.5 µM

CC(C)C1CNC(=O)C2(/C=N/C(C(C)C)CNC(=O)C3(/C=N/1)CCCO3)CCCO2 (stereo not given)
inactive: RPMI-8226 > 10 µM | MCF7 > 10 µM | SK-MEL-28 > 10 µM | SF-268 > 10 µM | OVCAR-4 > 10 µM | SF-539 > 10 µM | SK-OV-3 > 10 µM | HT-29 > 10 µM | A498 > 10 µM | NCI-H23 > 10 µM | SW-620 > 10 µM | M14 > 10 µM | K562 > 10 µM | U-251 > 10 µM | SN12C > 10 µM | HCT-116 > 10 µM | PC-3 > 10 µM

O=c1[nH]c2ccc(C(F)(F)F)cc2nc1-c1ccccc1
inactive: RPMI-8226 > 100 µM | MCF7 > 100 µM | SK-MEL-28 > 100 µM | SF-268 > 100 µM | SF-539 > 100 µM | HT-29 > 100 µM | A498 > 100 µM | NCI-H23 > 100 µM | SW-620 > 100 µM | M14 > 100 µM | K562 > 100 µM | SN12C > 100 µM | HCT-116 > 100 µM | PC-3 > 100 µM

N=C(N)C1CN(CCCCCCCCCCN2CC(C(=N)N)C(O)=NC2=O)C(=O)N=C1O (stereo not given)
inactive: RPMI-8226 > 10 µM | SK-MEL-2 > 10 µM | MCF7 > 10 µM | OVCAR-4 > 10 µM | SF-539 > 10 µM | SK-OV-3 > 10 µM | HT-29 > 10 µM | A498 > 10 µM | NCI-H23 > 10 µM | SW-620 > 10 µM | M14 > 10 µM | K562 > 10 µM | U-251 > 10 µM | SN12C > 10 µM | HCT-116 > 10 µM | PC-3 > 10 µM

N/C(=N\c1ccc(Cl)cc1)c1ccccc1N
inactive: RPMI-8226 > 100 µM | MCF7 > 100 µM | SK-MEL-28 > 100 µM | SF-268 > 100 µM | OVCAR-4 > 100 µM | SK-OV-3 > 100 µM | HT-29 > 100 µM | A498 > 100 µM | NCI-H23 > 100 µM | SW-620 > 100 µM | M14 > 100 µM | K562 > 100 µM | U-251 > 100 µM | HCT-116 > 100 µM | PC-3 > 100 µM | UO-31 > 100 µM
